Article PMC5047880, “Characterization of Linoleate 10-Hydratase of Lactobacillus plantarum and Novel Antifungal Metabolites” (Frontiers in Microbiology, 2016)

Tests used:
Test in all cases: activity of apoenzyme after addition of FAD, LC-APPI-MS
Format in all cases: biochemical
Details in all cases: 0.2 mM FAD, 4°C, 24 h; linoleic acid as substrate, MES pH 6.1
[1] = target: T1, LAH of Lactobacillus hammesii (linoleate 10-hydratase, 10-LAH) (Levilactobacillus hammesii, UniProt A0A1I9RYV0)
T1 construct: full length, 564 residues; His-tag from pET-28a(+) (BamHI/HindIII); primers encode MVKTKAVM... and ...ATKRMFS
T1 sequence (A0A1I9RYV0 1-564): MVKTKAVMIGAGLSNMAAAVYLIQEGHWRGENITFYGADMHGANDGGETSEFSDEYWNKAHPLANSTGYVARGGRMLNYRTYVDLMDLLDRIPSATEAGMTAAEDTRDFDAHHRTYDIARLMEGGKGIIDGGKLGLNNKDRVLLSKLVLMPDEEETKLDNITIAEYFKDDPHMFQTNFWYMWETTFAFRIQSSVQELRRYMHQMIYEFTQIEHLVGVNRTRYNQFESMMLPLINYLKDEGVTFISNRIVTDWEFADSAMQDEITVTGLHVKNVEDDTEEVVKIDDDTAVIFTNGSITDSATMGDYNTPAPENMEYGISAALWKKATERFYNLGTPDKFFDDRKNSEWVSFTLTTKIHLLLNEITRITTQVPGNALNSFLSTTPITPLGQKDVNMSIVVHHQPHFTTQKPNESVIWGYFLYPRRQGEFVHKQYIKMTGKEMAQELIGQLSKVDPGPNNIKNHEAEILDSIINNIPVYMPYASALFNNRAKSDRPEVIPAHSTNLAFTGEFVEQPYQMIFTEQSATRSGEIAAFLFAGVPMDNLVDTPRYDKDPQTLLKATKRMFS

[2] = target: T2, LAH of Lactobacillus reuteri (linoleate 10-hydratase, 10-LAH) (Limosilactobacillus reuteri, UniProt A0A1I9RYU8)
T2 construct: full length, 590 residues; His-tag from pET-28a(+) (NdeI/NotI); primers encode MYYSNGNY... and ...MEEQHLL
T2 sequence (A0A1I9RYU8 1-590): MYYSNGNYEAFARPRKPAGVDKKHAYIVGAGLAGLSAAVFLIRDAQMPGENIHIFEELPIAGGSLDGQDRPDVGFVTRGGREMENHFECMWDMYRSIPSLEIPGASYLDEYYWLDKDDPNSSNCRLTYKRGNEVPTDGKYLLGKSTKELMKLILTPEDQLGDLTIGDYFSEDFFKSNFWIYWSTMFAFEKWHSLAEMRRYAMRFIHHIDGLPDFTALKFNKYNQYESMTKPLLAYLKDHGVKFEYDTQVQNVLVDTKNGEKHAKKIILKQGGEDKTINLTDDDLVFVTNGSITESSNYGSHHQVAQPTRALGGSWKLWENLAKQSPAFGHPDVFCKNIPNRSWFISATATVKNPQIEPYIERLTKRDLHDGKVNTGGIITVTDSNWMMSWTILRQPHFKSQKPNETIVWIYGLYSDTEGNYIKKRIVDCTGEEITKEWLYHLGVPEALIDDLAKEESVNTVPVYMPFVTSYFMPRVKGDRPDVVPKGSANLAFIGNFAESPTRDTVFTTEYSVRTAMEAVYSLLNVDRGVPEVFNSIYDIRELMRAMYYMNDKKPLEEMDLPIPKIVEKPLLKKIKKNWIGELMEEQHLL

[3] = target: T3, LAH of Lactobacillus plantarum (linoleate 10-hydratase, 10-LAH) (Lactiplantibacillus plantarum, UniProt A0A1I9RYU9)
T3 construct: full length, 564 residues; His-tag from pET-28a(+) (EcoRI/NotI); primers encode MVKSKAIM... and ...ATKKMFD
T3 sequence (A0A1I9RYU9 1-564): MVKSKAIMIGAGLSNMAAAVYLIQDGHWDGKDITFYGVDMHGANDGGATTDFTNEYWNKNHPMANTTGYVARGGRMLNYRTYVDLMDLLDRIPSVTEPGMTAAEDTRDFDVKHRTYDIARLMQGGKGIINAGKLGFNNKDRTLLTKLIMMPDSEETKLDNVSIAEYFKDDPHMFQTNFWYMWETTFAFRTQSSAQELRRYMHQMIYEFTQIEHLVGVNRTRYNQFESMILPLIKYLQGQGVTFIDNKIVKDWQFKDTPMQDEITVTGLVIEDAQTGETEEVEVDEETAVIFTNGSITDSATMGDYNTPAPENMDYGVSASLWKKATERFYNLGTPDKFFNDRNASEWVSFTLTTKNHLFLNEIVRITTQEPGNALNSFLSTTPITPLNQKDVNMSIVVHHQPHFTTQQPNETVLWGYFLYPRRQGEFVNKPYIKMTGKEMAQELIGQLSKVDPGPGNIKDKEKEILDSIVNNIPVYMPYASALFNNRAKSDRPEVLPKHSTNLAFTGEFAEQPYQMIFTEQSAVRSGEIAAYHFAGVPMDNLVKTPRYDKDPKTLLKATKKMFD

[4] = target: T4, LAH of Lactobacillus spicheri (linoleate 10-hydratase, 10-LAH) (Levilactobacillus spicheri, UniProt A0A0F3RUK6)
T4 construct: gene lai; full length, 564 residues; His-tag from pET-28a(+) (EcoRI/NotI); primers encode MVKTKAVM... and ...ATKKMFS
T4 sequence (A0A0F3RUK6 1-564): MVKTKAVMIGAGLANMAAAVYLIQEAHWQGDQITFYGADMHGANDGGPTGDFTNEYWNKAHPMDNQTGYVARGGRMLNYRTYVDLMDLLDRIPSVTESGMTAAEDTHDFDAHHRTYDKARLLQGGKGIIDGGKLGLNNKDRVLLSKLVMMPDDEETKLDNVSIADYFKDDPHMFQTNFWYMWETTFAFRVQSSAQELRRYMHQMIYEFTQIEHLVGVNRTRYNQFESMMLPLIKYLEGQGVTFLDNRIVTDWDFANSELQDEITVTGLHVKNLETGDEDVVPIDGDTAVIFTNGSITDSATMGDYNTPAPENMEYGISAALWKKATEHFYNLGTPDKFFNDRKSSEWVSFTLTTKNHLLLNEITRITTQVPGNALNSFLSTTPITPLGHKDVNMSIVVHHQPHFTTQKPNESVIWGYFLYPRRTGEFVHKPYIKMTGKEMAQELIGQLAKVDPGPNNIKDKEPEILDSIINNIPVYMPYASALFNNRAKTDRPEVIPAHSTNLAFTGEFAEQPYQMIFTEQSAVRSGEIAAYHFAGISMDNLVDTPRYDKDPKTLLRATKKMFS

Cc1cc2nc3c(=O)[nH]c(=O)nc-3n(C[C@H](O)[C@H](O)[C@H](O)COP(=O)(O)OP(=O)(O)OC[C@H]3O[C@@H](n4cnc5c(N)ncnc54)[C@H](O)[C@@H]3O)c2cc1C [FAD]
activity of apoenzyme after addition of FAD, LC-APPI-MS [1]: The addition of cofactor FAD to apoenzyme was essential for activity | activity of apoenzyme after addition of FAD, LC-APPI-MS [2]: The addition of cofactor FAD to apoenzyme was essential for activity | activity of apoenzyme after addition of FAD, LC-APPI-MS [3]: The addition of cofactor FAD to apoenzyme was essential for activity | activity of apoenzyme after addition of FAD, LC-APPI-MS [4]: The addition of cofactor FAD to apoenzyme was essential for activity
